Measured values published in US20110184188A1, “Insecticidal Benzenedicarboxamide Derivative” (priority 2008, published 2011).

Assay: logP(acid) by reverse phase (C18) chromatography at pH 2.3
Format: physicochemical
Details: pH 2.3

| SMILES | chromatographic logP |
| --- | --- |
| Cc1nc(Cn2nc(C(F)(F)C(F)(F)F)cc2C(F)(F)C(F)(F)F)ccc1N [SYNTHESIS EXAMPLE 81-2] | 2.83 |
| Cc1cc(Cn2nc(C(F)(F)F)nc2C(F)(F)F)ncc1[N+](=O)[O-] [SYNTHESIS EXAMPLE 69-1] | 3.38 |

Same assay, conditions: reverse phase (C18) chromatography at pH 2.3

| SMILES | logP (acid) |
| --- | --- |
| Cc1nc(Cn2nc(C(F)(F)C(F)(F)F)cc2C(F)(F)F)ccc1NC(=O)c1cccc(Cl)c1C(=O)N[C@@H](C)C[S+](C)[O-] (stereo partly shown) [13-70] | 2.86 |
| CSC[C@H](C)NC(=O)c1c(Cl)ccc(Cl)c1C(=O)Nc1ccc(Cn2nc(C(F)(F)C(F)(F)F)nc2C(F)(F)F)cc1C [11-27] | logP (acid) 4.51 |
| Cc1nc(Cn2nc(C(F)(F)C(F)(F)F)cc2C(F)(F)F)ccc1NC(=O)c1cccc(I)c1C(=O)N[C@@H](C)CS(C)(=O)=O [13-189] | logP (acid) 3.27 |
| Cc1cc(Cn2nc(C(F)(F)C(F)(F)F)nc2C(F)(F)F)ccc1NC(=O)c1cc(F)cc(Cl)c1C(=O)N[C@@H](C)C[S+](C)[O-] (stereo partly shown) [10-14] | logP (acid) 3.00 |
| Cc1nc(Cn2nc(C(F)(F)F)cc2C(F)(F)F)ccc1NC(=O)c1c(Cl)ccc(Cl)c1C(=O)N[C@@H](C)CS(C)(=O)=O [11-6] | logP (acid) 3.05 |
| Cc1nc(Cn2cc(C(F)(F)C(F)(F)F)c(C(F)(F)C(F)(F)F)n2)ccc1NC(=O)c1cccc(Br)c1C(=O)N[C@@H](C)CS(C)(=O)=O [13-141] | logP (acid) 3.52 |
| CSCC(C)NC(=O)c1c(Cl)ccc(Cl)c1C(=O)Nc1ccc(Cn2nc(C(F)(F)F)cc2C(F)(F)F)nc1C (stereo not shown) [11-4] | logP (acid) 4.14 |
| CSC[C@H](C)NC(=O)c1c(I)ccc(F)c1C(=O)Nc1ccc(Cn2nc(C(F)(F)F)cc2C(F)(F)F)nc1C [11-1] | logP (acid) 3.72 |
| CSC[C@H](C)NC(=O)c1c(Br)cccc1C(=O)Nc1ccc(Cn2cc(C(F)(F)C(F)(F)F)c(C(F)(F)C(F)(F)F)n2)nc1C [13-134] | logP (acid) 4.35 |
| Cc1cc(Cn2nc(C(F)(F)C(F)(F)F)nc2C(F)(F)F)ccc1NC(=O)c1c(Br)ccc(Cl)c1C(=O)N[C@@H](C)CS(C)(=O)=O [11-32] | logP (acid) 3.47 |

Same assay, conditions: reverse phase (C18) chromatography at pH2.3, 0.1% phosphoric acid aqueous solution / acetonitrile gradient

| SMILES | logP (acid) |
| --- | --- |
| CSC[C@H](C)NC(=O)c1c(Cl)cccc1C(=O)Nc1cc(F)c(Cn2nc(C(F)(F)F)cc2C(F)(F)F)nc1C [7-150] | logP (acid) 4.13 |

Same assay, conditions: reverse phase (C18) chromatography at pH2.3, 0.1% phosphoric acid aqueous solution / acetonitrile, linear gradient 10-95%

| SMILES | logP (acid) |
| --- | --- |
| CSC[C@H](C)NC(=O)c1c(Cl)cccc1C(=O)Nc1cccc(Cn2nc(C(F)(F)C(F)(F)F)nc2-c2ccc(Cl)cc2)c1C [4-9] | logP (acid) 4.32 |
| CSC[C@H](C)NC(=O)c1c(Cl)cccc1C(=O)Nc1cccc(Cn2nc(C(F)(F)C(F)(F)F)nc2-c2ccc(Cl)nc2)c1C [4-11] | logP (acid) 3.8 |

Same assay, conditions: reverse phase (C18) chromatography at pH2.3, 0.1% phosphoric acid aqueous solution / acetonitrile, linear gradient 10-95% acetonitrile

| SMILES | logP (acid) |
| --- | --- |
| Cc1cc(Cn2nc(C(F)(F)F)nc2C(F)(F)F)c(F)cc1NC(=O)c1cccc(Br)c1C(=O)N[C@@H](C)C[S+](C)[O-] (stereo partly shown) [7-14] | logP (acid) 2.68 |
| Cc1cc(Cn2nc(C(F)(F)F)nc2C(F)(F)F)c(F)cc1NC(=O)c1cccc(Cl)c1C(=O)N[C@@H](C)C[S+](C)[O-] (stereo partly shown) [7-8] | logP (acid) 2.63 |

Same assay, conditions: reverse phase (C18) chromatography, pH 2.3

| SMILES | logP (acid) |
| --- | --- |
| CCN(CC)CC(C)NC(=O)c1cccc(Cl)c1C(=O)Nc1ccc(Cn2nc(C(F)(F)F)cc2C(F)(F)F)nc1C (stereo not shown) [13-285] | logP (acid) 2.53 |
| CSC[C@H](C)NC(=O)c1c(Cl)cccc1C(=O)Nc1ccc(Cn2nc(C(F)(F)F)cc2N)cc1C [13-200] | logP (acid) 2.31 |
| CSC[C@H](C)NC(=O)c1c(Cl)cccc1C(=O)Nc1ccc(C(=O)c2cc(C(F)(F)C(F)(F)F)n[nH]2)cc1C [13-229] | logP (acid) 3.4 |
| CSC[C@H](C)NC(=O)c1c(SC)cccc1C(=O)Nc1ccc(Cn2nc(C(F)(F)C(F)(F)F)cc2C(F)(F)F)cc1C [13-310] | logP (acid) 4.74 |
| CSC[C@H](C)NC(=O)c1c(C(=O)Nc2ccc(Cn3nc(C(F)(F)C(F)(F)F)cc3C(F)(F)F)cc2C)cccc1S(C)(=O)=O [13-311] | logP (acid) 4.20 |
| CSC[C@H](C)NC(=O)c1c(Br)cccc1C(=O)Nc1ccc(Cn2cnc(C(F)(F)C(F)F)n2)nc1C [14-302] | logP (acid) 2.48 |
| Cc1nc(Cn2nc(C(F)(F)F)nc2C(F)(F)F)ccc1NC(=O)c1cccc(S(C)(=O)=O)c1C(=O)N[C@@H](C)C[S+](C)[O-] (stereo partly shown) [14-366] | logP (acid) 2.07 |
| Cc1nc(Cn2nc(C(F)(F)C(F)(F)F)nc2C(F)(F)F)ccc1NC(=O)c1cccc(S(C)(=O)=O)c1C(=O)N[C@@H](C)C[S+](C)[O-] (stereo partly shown) [14-394] | logP (acid) 2.39 |
| Cc1cc(Cn2nc(C(F)(F)C(F)(F)F)nc2C(F)(F)F)ccc1NC(=O)c1cccc(Cl)c1C(=O)NC(C)CC1(C)OCCCO1 (stereo not shown) [14-357] | logP (acid) 3.79 |
| Cc1nc(Cn2nc(C(F)(F)F)cc2C(F)(F)F)ccc1NC(=O)c1c(Cl)cccc1C(=O)NC1CCS(=O)(=O)C1 (stereo not shown) [13-276] | logP (acid) 3.28 |
| Cc1nc(Cn2c(C(F)(F)F)nc(Cl)c2Cl)ccc1NC(=O)c1cccc(Cl)c1C(=O)N[C@@H](C)C[S+](C)[O-] (stereo partly shown) [13-363] | logP (acid) 2.17 |
| CSC[C@H](C)NC(=O)c1c(SC)cccc1C(=O)Nc1ccc(Cn2nc(C(F)(F)C(F)F)nc2C(F)(F)F)nc1C [14-397] | logP (acid) 3.49 |
| CSC[C@H](C)NC(=O)c1c(Cl)cccc1C(=O)Nc1ccc(Cn2cnc(C(F)(F)C(F)F)n2)nc1C [14-309] | logP (acid) 2.38 |
| CSC[C@H](C)NC(=O)c1c(Cl)cccc1C(=O)Nc1ccc(Nc2c(C(F)(F)F)c(C(F)(F)C(F)(F)F)nn2C)nc1C [13-226] | logP (acid) 3.64 |
| CSC[C@H](C)NC(=O)c1c(Cl)cccc1C(=O)Nc1ccc(Cc2cc(C(F)(F)C(F)(F)F)n[nH]2)cc1C [13-230] | logP (acid) 3.29 |
| CSC[C@H](C)NC(=O)c1c(I)cccc1C(=O)Nc1cnc(Cn2nc(C(F)(F)F)nc2C(F)(F)F)cc1C [14-274] | logP (acid) 3.44 |
| Cc1cc(Cn2nc(C(F)(F)F)cc2C(F)(F)F)ccc1NC(=O)c1cccc(Cl)c1C(=O)NC(C)CN(C)C (stereo not shown) [13-191] | logP (acid) 1.81 |

| SMILES | logP (acid) |
| --- | --- |
| CSCC(C)NC(=O)c1c(Cl)cccc1C(=O)Nc1ccc(C(O)c2cc(C(F)(F)C(F)(F)F)n[nH]2)cc1C (mixture of isomers) [13-231] | logP (acid) 2.76 |
| CSC[C@H](C)NC(=O)c1c(SC)cccc1C(=O)Nc1ccc(Cn2nc(C(F)(F)C(F)(F)F)nc2C(F)(F)C(F)(F)F)nc1C [14-387] | logP (acid) 4.33 |
| Cc1cc(Cn2nc(C(F)(F)C(F)(F)F)nc2C(F)(F)F)ccc1NC(=O)c1cccc(I)c1C(=O)NC(C)CC1(C)OCCO1 (stereo not shown) [14-361] | logP (acid) 3.95 |
| CSCC(C)NC(=O)c1c(C(=O)Nc2ccc(C(O)c3cc(C(F)(F)C(F)(F)F)n[nH]3)cc2C)cccc1S(C)(=O)=O (mixture of isomers) [13-341] | logP (acid) 2.02 |
| Cc1cc(Cn2nc(C(F)(F)C(F)(F)F)n(C(F)F)c2=O)ccc1NC(=O)c1cccc(Cl)c1C(=O)N[C@@H](C)C[S+](C)[O-] (stereo partly shown) [14-329] | logP (acid) 2.5 |
| CSC[C@H](C)NC(=O)c1c(Cl)cccc1C(=O)Nc1ccc(Nc2c(SC(F)(F)F)c(C(F)(F)F)nn2-c2c(Cl)cc(C(F)(F)F)cc2Cl)nc1C [13-227] | logP (acid) 5.09 |
| CSC[C@H](C)NC(=O)c1c(I)cccc1C(=O)Nc1ccc(Cn2nc(C(F)(F)F)cc2C(F)(F)C(F)(F)F)nc1C [13-239] | logP (acid) 4.27 |
| Cc1nc(N(C)c2c(C(F)(F)F)c(C(F)(F)C(F)(F)F)nn2C)ccc1NC(=O)c1cccc(Cl)c1C(=O)N[C@@H](C)C[S+](C)[O-] (stereo partly shown) [13-354] | logP (acid) 2.91 |
| CSC[C@H](C)NC(=O)c1c(Cl)cccc1C(=O)Nc1ccc(Cn2nc(C(F)(F)C(F)F)nc2C(F)(F)F)nc1C [14-311] | logP (acid) 3.45 |
| CSC[C@H](C)NC(=O)c1c(Br)cccc1C(=O)Nc1cnc(Cn2nc(C(F)(F)F)nc2C(F)(F)F)cc1C [14-271] | logP (acid) 3.37 |
| CSC[C@H](C)NC(=O)c1c(Cl)cccc1C(=O)Nc1ccc(Oc2cc(C(F)(F)F)n(C)n2)nc1C [13-228] | logP (acid) 2.98 |
| Cc1nc(Cn2nc(C(F)(F)F)nc2C(F)(F)F)ccc1NC(=O)c1cccc(S(=O)(=O)N(C)C)c1C(=O)N[C@@H](C)CS(C)(=O)=O [14-369] | logP (acid) 2.72 |
| Cc1cc(Cn2nc(C(F)(F)C(F)(F)F)nc2C(F)(F)F)ccc1NC(=O)c1cccc(Br)c1C(=O)NC(C)CC1(C)OCCCO1 (stereo not shown) [14-359] | logP (acid) 4.06 |
| CSC[C@H](C)NC(=O)c1c(Cl)cccc1C(=O)Nc1ccc(Cn2cc(C(=O)Nc3cc(C(F)(F)F)cc(C(F)(F)F)c3)c(C(F)(F)F)n2)cc1C [13-211] | logP (acid) 4.55 |
| CSC[C@H](C)NC(=O)c1c(SC)cccc1C(=O)Nc1ccc(Cn2nc(C(F)(F)C(F)(F)F)c(C(F)(F)F)c2F)cc1C [13-308] | logP (acid) 4.43 |
| Cc1cc(Cn2nnc(-c3ccc(C(F)(F)F)cc3)n2)ccc1NC(=O)c1cccc(Br)c1C(=O)N[C@@H](C)CS(C)(=O)=O [14-348] | logP (acid) 3.22 |

Same assay, conditions: reverse phase (C18) chromatography, pH2.3, 0.1% phosphoric acid / acetonitrile gradient 10-95%

| SMILES | logP (acid) |
| --- | --- |
| CNC(=O)c1cc(Cl)cc(Cl)c1C(=O)Nc1cc(Cl)ccc1Cn1nc(C(F)(F)F)nc1C(F)(F)F [3-2] | logP (acid) 3.84 |

Same assay, conditions: reverse phase (C18) chromatography, pH2.3, 0.1% phosphoric acid aqueous solution / acetonitrile, linear gradient 10-95% acetonitrile

| SMILES | logP (acid) |
| --- | --- |
| Cc1cc(Cn2nc(C(F)(F)F)cc2C(F)(F)F)ccc1NC(=O)c1ccc(C(F)(F)F)c(Cl)c1C(=O)N[C@@H](C)CS(C)(=O)=O [9-17] | logP (acid) 3.22 |
